# In patent publication US7998954B2, “Pyrimidodiazepinone derivative” (Kyowa Hakko Kirin Co., Ltd., priority 2007, dated 2011):
# Experiments:
# [1] = system: Rats with chronic constriction nerve injury; experiment: Analgesic effect in rats with chronic constriction nerve injury (von Frey filaments, 50% pain threshold); assay type: in vivo, rat; conditions: oral, dose of 30 mg/kg or less, measured after 3 hours
# Text: Analgesic Effect of Compounds in Rats with Chronic Constriction Nerve Injury
# Rats with chronic constriction nerve injury were produced by partially modifying the method of Mosconi and Kruger et al. [Pain, 1996, Vol. 64, p. 37-57] with slight modification.
# The sciatic nerve in the left posterior leg of male Crl:CD (SD) rats was exfoliated under pentobarbital anesthesia, and a polyethylene tube (trade name: Intramedic; size: PE-60; Becton Dickinson) having a length of 2 mm was wrapped over the site of exfoliation. On days 14 to 21 after the surgery, the rats were placed in an acrylic quadruple cage (width 900 mm×depth 210 mm×height 140 mm) with a wire mesh floor consisting 4 cages connected in a row. Pain evaluation was performed after at least 20 minutes to allow the rats to acclimate to the new environment.
# In pain evaluation, von Frey filaments (trade name: Touch Test Sensory Evaluator; Model: 58011; Muromachi Kikai Co., Ltd.) were used. The results were calculated as a pain thresholds. That is, by using a von Frey filament of different stimulus intensity, stimulation was given to the plantar surface of the injured side of rats with chronic constriction nerve injury, and the stimulus intensity to cause paw withdrawal response was obtained. […] 441-462]. The 50% pain thresholds of normal rats were 10 to 12 g on average.
# For the evaluation of test compounds, rats with 50% pain thresholds of less than 4 g were used. The test compounds were suspended in a 0.5% aqueous methyl cellulose solution, and orally administered at a volume of 5 mL/kg. After 3 hours, pain thresholds were measured using von Frey filaments.
# [2] = system: chronic dermatitis model with repeated hapten applications; experiment: Effects on pruritus in chronic dermatitis model with repeated hapten (oxazolone) applications; assay type: in vivo; conditions: 100 mg/kg oral, 1 hour before antigen application on day 16; BALB/c mice; ***P < 0.001, t-test vs control group
# Text: Effects on Pruritus in Chronic Dermatitis Model with Repeated Hapten Applications
# A chronic dermatitis model with repeated hapten applications was produced by partially modifying the method of Kitagaki et al. [Journal of Investigative Dermatology, 1995, Vol. 105, p. 749-755].
# Oxazolone (Sigma-Aldrich) was used as hapten, and dissolved in acetone (Kanto Kagaku) to prepare a 0.5 w/v % oxazolone-acetone solution (antigen solution). BALB/c mice (6 weeks of age) were sensitized by a single application of the antigen solution (10 μL) to the shaved rostral back. […]
# Itch response of the mice on day 16 was analyzed by partially modifying the method of Kuraishi et al. [European journal of phamacology, 1995, Vol. 275, p. […]
# To allow the mice to acclimate to new environment, the mice were left in an acrylic observation cage (7.5×8×15 cm) for 1 hour. The mice were put back into the cage immediately after the application of the antigen solution to the rostral back, and the behavior of the mice was monitored unattended with an 8 mm video camera recorder. […] During the observation, scratching movements with the hind paws around the site of antigen solution application was counted. […] A series of these movements was counted as a single scratching movement.
SMILES,pain thresholds (50% paw withdrawal thresholds) [1],The number of scratching movements during 1 hr after the hapten applications [2]
"CCNc1ncc2c(n1)N1CCC[C@H]1CN(c1cccc(-c3nn(C)c(=O)o3)c1)C2=O [Compound 90, (S)-5-[3-(9-Ethylamino-6-oxo-2,3,3a,4-tetrahydro-1H,6H-5,8,10,10b-tetraazabenzo[e]azulen-5-yl)phenyl]-3-methyl-1,3,4-oxadiazol-2(3H)-one]",significantly increased pain thresholds,–
"CCNc1ncc2c(n1)N1CCCC1CN(c1cccc(-c3nnc(C)o3)c1)C2=O (stereo not shown) [Compound 20, 9-Ethylamino-5-[3-(5-methyl-[1,3,4]oxadiazol-2-yl)phenyl]-1,2,3,3a,4,5-hexahydro-5,8,10,10b-tetraazabenzo[e]azulen-6-one]",significantly increased pain thresholds,–
"CNc1ncc2c(n1)N1CCC[C@H]1CN(c1cccc(-c3nnn(C)n3)c1)C2=O [Compound 137, (S)-5-[3-(2-Methyl-2H-tetrazol-5-yl)phenyl]-9-methylamino-1,2,3,3a,4,5-hexahydro-5,8,10,10b-tetraazabenzo[e]azulen-6-one]",significantly increased pain thresholds,–
"CCNc1ncc2c(n1)N1CCC[C@H]1CN(c1cncc(-c3nnc(C)o3)c1)C2=O [Compound 43, (S)-9-Ethylamino-5-[5-(5-methyl-1,3,4-oxadiazol-2-yl)pyridin-3-yl]-1,2,3,3a,4,5-hexahydro-5,8,10,10b-tetraazabenzo[e]azulen-6-one]",significantly increased pain thresholds,–
"CCNc1ncc2c(n1)N1CCC[C@H]1CN(c1cccc(-c3noc(C)n3)c1)C2=O [Compound 72, (S)-9-Ethylamino-5-[3-(5-methyl-1,2,4-oxadiazol-3-yl)phenyl]-1,2,3,3a,4,5-hexahydro-5,8,10,10b-tetraazabenzo[e]azulen-6-one]",significantly increased pain thresholds,–
"CNc1ncc2c(n1)N1CCC[C@H]1CN(c1cccc(-c3nn(C)c(=O)o3)c1)C2=O [Compound 89, (S)-3-Methyl-5-[3-(9-methylamino-6-oxo-2,3,3a,4-tetrahydro-1H,6H-5,8,10,10b-tetraazabenzo[e]azulen-5-yl)phenyl]-1,3,4-oxadiazol-2(3H)-one]",significantly increased pain thresholds,–
"CCNc1ncc2c(n1)N1CCC[C@H]1CN(CC1CCN(C(=O)c3ccco3)CC1)C2=O [Compound 35, (S)-9-Ethylamino-5-[1-(furan-2-carbonyl)piperidin-4-yl]methyl-1,2,3,3a,4,5-hexahydro-5,8,10,10b-tetraazabenzo[e]azulen-6-one]",–,84±33 counts
"CNc1ncc2c(n1)N1CCC[C@H]1CN(c1cccc(-c3noc(C)n3)c1)C2=O [Compound 74, (S)-5-[3-(5-Methyl-1,2,4-oxadiazol-3-yl)phenyl]-9-methylamino-1,2,3,3a,4,5-hexahydro-5,8,10,10b-tetraazabenzo[e]azulen-6-one]",significantly increased pain thresholds,–
"CCNc1ncc2c(n1)N1CCCC1CN(c1cccc(-c3ccnc(Cl)c3)c1)C2=O (stereo not shown) [Compound 16, 5-[3-(2-Chloropyridin-4-yl)phenyl]-9-ethylamino-1,2,3,3a,4,5-hexahydro-5,8,10,10b-tetraazabenzo[e]azulen-6-one]",significantly increased pain thresholds,–
"CCNc1ncc2c(n1)N1CCC[C@H]1CN(Cc1ccc(F)cc1F)C2=O [Compound 3, (S)-5-(2,4-Difluorobenzyl)-9-ethylamino-1,2,3,3a,4,5-hexahydro-5,8,10,10b-tetraazabenzo[e]azulen-6-one]",–,225±37 counts
